This is an account of results in US20250026721A1, “COMPOUNDS AND METHODS FOR MODULATING RAS-PI3K” (Vividion Therapeutics, Inc., priority 2023, published 2025).

The experiment has as its target T1, PIK3CA (Homo sapiens, UniProt P42336).
T1 construct: endogenous in cells; host or cells: Jurkat cell lysate
The experiment is described as follows: In vitro ELISA target engagement assay for PIK3CA in Jurkat cellular lysate (competition with PIK3CA Biotin Probe). The experiment is classed as binding. The conditions noted are these: 1 hour at rt, then 500 nM PIK3CA Biotin Probe, read-out: Elisa Target Engagement Assay (TE50). The procedure:
Example 3. In Vitro ELISA Target Engagement Assay for […] Engagement of compounds on PIK3CA were assessed in Jurkat cellular lysate via a sandwich ELISA. A solution of PIK3CA Biotin Probe was generated at 10 mM and used in the biological testing. […] Treatment Protocol: Jurkat cellular lysate was generated from frozen cell pellets. Cells were thawed on ice and resuspended in cold Dulbecco's phosphate buffered saline (DPBS) (12 mL/300 e^6 cells) then lysed by probe sonication (12×3 second pulses). Jurkat lysate was plated (50 μl/well) in Armadillo 96 well PCR plates (Thermo Fisher catalog number AB2396). The lysate was treated with serial dilutions of test compounds up to 200 μM and incubated for 1 hour at rt. Following compound incubation, PIK3CA Biotin Probe was added to a final concentration of 500 nM, and lysate was mixed by pipetting gently and incubated for an additional 1 hour at rt. The mixture was then diluted in 75 μL Dilution buffer. The mixture was centrifuged for 5 minutes at 4122 g and stored at −80° C. until ELISA TE detection. ELISA TE Detection: Quantification of PIK3CA TE was initiated by coating of the ELISA plate (Thermo Scientific White 384-Well Immuno plates; Thermo Fisher catalog number 460372). The capture antibody was diluted in plating buffer (1:83) and added to the ELISA plate, 20 μl/well, overnight at 4° C. The plate was then washed twice with PBST, 100 μl/well, and blocked with addition of blocking buffer (100 μl/well, 1 hour at rt). During block, treated and probe labeled lysate was thawed. After Block, the block buffer was removed and the thawed lysate was added to the ELISA plate, 30 μl/well, for 1.5 hours at rt. Following lysate incubation, the assay plate was washed 3 times with PBST, 100 μl/well. The Neutravidin-HRP was then diluted (1:500 in dilution buffer) and added for 1 hour at rt, 20 μl/well. Following incubation, the assay plate was washed 4 times with PBST, 100 μl/well, HRP substrate was added to plate, 20 μl/well and luminescence signal was read (Clariostar Plate Reader). For each compound the potency of target engagement (TE50) was determined using Graphpad Prism.

T1 sequence (P42336 whole entry): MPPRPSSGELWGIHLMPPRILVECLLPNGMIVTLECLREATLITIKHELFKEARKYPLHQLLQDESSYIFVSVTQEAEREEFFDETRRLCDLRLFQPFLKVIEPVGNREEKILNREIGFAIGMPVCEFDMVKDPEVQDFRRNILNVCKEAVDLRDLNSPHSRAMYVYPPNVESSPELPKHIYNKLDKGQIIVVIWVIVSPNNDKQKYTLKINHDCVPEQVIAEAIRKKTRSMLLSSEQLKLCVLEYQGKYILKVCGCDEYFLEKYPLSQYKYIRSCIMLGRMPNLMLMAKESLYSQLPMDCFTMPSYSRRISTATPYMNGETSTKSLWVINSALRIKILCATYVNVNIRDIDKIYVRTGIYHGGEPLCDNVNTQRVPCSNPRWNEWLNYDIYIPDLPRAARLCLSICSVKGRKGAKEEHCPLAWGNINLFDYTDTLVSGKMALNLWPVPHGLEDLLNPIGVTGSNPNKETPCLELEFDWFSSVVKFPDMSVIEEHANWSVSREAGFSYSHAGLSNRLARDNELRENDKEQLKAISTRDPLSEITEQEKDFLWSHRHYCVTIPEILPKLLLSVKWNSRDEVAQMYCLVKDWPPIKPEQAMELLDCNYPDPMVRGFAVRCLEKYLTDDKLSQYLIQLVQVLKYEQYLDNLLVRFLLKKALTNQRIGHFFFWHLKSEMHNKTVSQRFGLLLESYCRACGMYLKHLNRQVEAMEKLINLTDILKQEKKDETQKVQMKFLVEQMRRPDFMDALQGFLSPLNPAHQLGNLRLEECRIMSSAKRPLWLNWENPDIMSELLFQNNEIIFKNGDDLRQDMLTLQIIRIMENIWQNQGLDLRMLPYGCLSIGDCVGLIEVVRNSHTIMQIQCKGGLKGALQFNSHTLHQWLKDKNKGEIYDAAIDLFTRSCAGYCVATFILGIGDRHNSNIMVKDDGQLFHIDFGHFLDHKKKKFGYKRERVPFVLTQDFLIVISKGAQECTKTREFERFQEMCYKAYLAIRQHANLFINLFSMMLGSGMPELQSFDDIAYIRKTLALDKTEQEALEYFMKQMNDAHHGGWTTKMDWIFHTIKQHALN
T1 sequence (P27986 whole entry partner): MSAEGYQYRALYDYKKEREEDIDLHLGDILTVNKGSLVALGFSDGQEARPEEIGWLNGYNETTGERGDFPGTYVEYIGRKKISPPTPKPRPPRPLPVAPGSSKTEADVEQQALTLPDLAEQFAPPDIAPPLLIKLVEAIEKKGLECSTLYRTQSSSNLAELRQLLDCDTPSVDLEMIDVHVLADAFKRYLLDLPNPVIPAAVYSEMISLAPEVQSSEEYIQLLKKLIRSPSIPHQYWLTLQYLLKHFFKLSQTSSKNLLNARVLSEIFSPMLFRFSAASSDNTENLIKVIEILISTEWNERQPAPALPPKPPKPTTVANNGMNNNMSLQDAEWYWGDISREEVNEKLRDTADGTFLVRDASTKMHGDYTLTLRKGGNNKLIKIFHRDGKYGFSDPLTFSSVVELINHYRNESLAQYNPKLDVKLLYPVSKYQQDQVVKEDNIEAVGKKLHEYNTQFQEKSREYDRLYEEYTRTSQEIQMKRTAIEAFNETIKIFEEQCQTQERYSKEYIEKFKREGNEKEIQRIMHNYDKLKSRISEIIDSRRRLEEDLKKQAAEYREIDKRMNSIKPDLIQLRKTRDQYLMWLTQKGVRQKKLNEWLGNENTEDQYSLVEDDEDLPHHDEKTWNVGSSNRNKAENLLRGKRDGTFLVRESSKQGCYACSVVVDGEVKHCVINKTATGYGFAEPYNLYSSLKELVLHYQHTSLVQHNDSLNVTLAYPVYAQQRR

On to `CC[C@H](/C=C/S(=O)(=O)C1CNC1)NC(=O)C1(F)CCN(S(=O)(=O)c2ccc(Br)cc2-c2ccccc2Cl)CC1` [Compound 77, (R,E)-N-(1-(azetidin-3-ylsulfonyl)pent-1-en-3-yl)-1-((5-bromo-2′-chloro-[1,1′-biphenyl]-2-yl)sulfonyl)-4-fluoropiperidine-4-carboxamide], for which the IC50 was found to be 128 nM. Take `COc1ccc(S(=O)(=O)N2CCC(F)(C(=O)N[C@H](C)C3=CS(=O)(=O)C3)CC2)c(-c2ccccc2Cl)c1` [Compound 235, (R)-1-((2′-chloro-5-methoxy-[1,1′-biphenyl]-2-yl)sulfonyl)-N-(1-(1,1-dioxido-2H-thiet-3-yl)ethyl)-4-fluoropiperidine-4-carboxamide]: the IC50 worked out at 370 nM. For `COc1ccc(S(=O)(=O)N2CC[C@@](F)(C(=O)NC/C=C\C(=O)N3CC(F)(F)C3)C[C@H]2C)c(-c2ccccc2Cl)c1` [Compound 288, (2R,4S)-1-((2′-chloro-5-methoxy-[1,1′-biphenyl]-2-yl)sulfonyl)-N-((Z)-4-(3,3-difluoroazetidin-1-yl)-4-oxobut-2-en-1-yl)-4-fluoro-2-methylpiperidine-4-carboxamide], the IC50 was found to be 490 nM. Regarding `C[C@H](/C=C\S(C)(=O)=O)NC(=O)C1(F)CCN(C(=O)[C@@H]2CCC3(CCC3)C[C@H]2c2ccccc2Cl)CC1` (racemic) [Compound 257, 1-((6*R,7*R)-6-(2-chlorophenyl)spiro[3.5]nonane-7-carbonyl)-4-fluoro-N-((R,Z)-4-(methylsulfonyl)but-3-en-2-yl)piperidine-4-carboxamide], the IC50 turned out to be 420 nM. Regarding `CCC(F)(F)CN1C[C@H](C(=O)N2CCC(F)(C(=O)N[C@H](C)/C=C\S(C)(=O)=O)CC2)[C@H](c2ccccc2Cl)C1` [Compound 178, 1-((3R,4R)-4-(2-chlorophenyl)-1-(2,2-difluorobutyl)pyrrolidine-3-carbonyl)-4-fluoro-N-((R,Z)-4-(methylsulfonyl)but-3-en-2-yl)piperidine-4-carboxamide], the IC50 came out at 540 nM. In the case of `C[C@@H]1C[C@](F)(C(=O)NC/C=C\C(=O)N2CC(F)(F)C2)CCN1C(=O)[C@H]1COC(C)(C)C[C@@H]1c1ccccc1Cl` (single isomer, unassigned) [Compound 293, (2*R,4*S)-1-((3*R,4*S)-4-(2-chlorophenyl)-6,6-dimethyltetrahydro-2H-pyran-3-carbonyl)-N-((Z)-4-(3,3-difluoroazetidin-1-yl)-4-oxobut-2-en-1-yl)-4-fluoro-2-methylpiperidine-4-carboxamide], the IC50 was found to be 820 nM.

Consider `C[C@H](/C=C\S(C)(=O)=O)NC(=O)[C@@]1(F)CCCN(C(=O)[C@@H]2CN(CC(F)(F)F)C[C@@H]2c2c(F)ccc(F)c2Cl)CC1` (single isomer, unassigned) [Compound 226, (R)-1-((3*S,4*S)-4-(2-chloro-3,6-difluorophenyl)-1-(2,2,2-trifluoroethyl)pyrrolidine-3-carbonyl)-4-fluoro-N-((R,Z)-4-(methylsulfonyl)but-3-en-2-yl)azepane-4-carboxamide], for which the IC50 is 170 nM. With `C[C@@H]1C[C@](F)(C(=O)NC/C=C\C(=O)N2CC(F)(F)C2)CCN1S(=O)(=O)c1ccc(C(F)(F)F)cc1-c1ccccc1Cl` [Compound 290, (2R,4S)-1-((2′-chloro-5-(trifluoromethyl)-[1,1′-biphenyl]-2-yl)sulfonyl)-N-((Z)-4-(3,3-difluoroazetidin-1-yl)-4-oxobut-2-en-1-yl)-4-fluoro-2-methylpiperidine-4-carboxamide], the IC50 was found to be 1000 nM.

With `CC(C)OC(=O)N1C[C@H](c2ccccc2Cl)[C@H](C(=O)N2CCC(F)(C(=O)N[C@H](C)/C=C\S(C)(=O)=O)CC2)C1` [Compound 199, isopropyl (3S,4S)-3-(2-chlorophenyl)-4-(4-fluoro-4-(((R,Z)-4-(methylsulfonyl)but-3-en-2-yl)carbamoyl)piperidine-1-carbonyl) pyrrolidine-1-carboxylate], the IC50 amounted to 900 nM. On to `C[C@H](/C=C\S(C)(=O)=O)NC(=O)C1(F)CCN(S(=O)(=O)c2ccc(Br)cc2-c2ccccc2)CC1` [Compound 57, (R,Z)-1-((5-bromo-[1,1′-biphenyl]-2-yl)sulfonyl)-4-fluoro-N-(4-(methylsulfonyl)but-3-en-2-yl)piperidine-4-carboxamide], for which the IC50 was determined as 580 nM. Next, `C[C@@H](C#CC(=O)N(C)C)NC(=O)C1(F)CCN(S(=O)(=O)c2ccc(Br)cc2-c2ccccc2Cl)CC1` [Compound 281, (S)-1-((5-bromo-2′-chloro-[1,1′-biphenyl]-2-yl)sulfonyl)-N-(5-(dimethylamino)-5-oxopent-3-yn-2-yl)-4-fluoropiperidine-4-carboxamide]: 160 nM. Next, `C[C@H](/C=C\S(C)(=O)=O)NC(=O)C1(F)CCN(C(=O)[C@H]2COC(C)(C)C[C@@H]2c2ccccc2Cl)CC1` (racemic) [Compound 256, 1-((3*R,4*S)-4-(2-chlorophenyl)-6,6-dimethyltetrahydro-2H-pyran-3-carbonyl)-4-fluoro-N-((R,Z)-4-(methylsulfonyl)but-3-en-2-yl)piperidine-4-carboxamide]: 780 nM; `C[C@@H](/C=C/S(=O)(=O)C1CNC1)NC(=O)C1(F)CCN(S(=O)(=O)c2ccc(Br)cc2-c2ccccc2Cl)CC1` [Compound 75, (S,E)-N-(4-(azetidin-3-ylsulfonyl)but-3-en-2-yl)-1-((5-bromo-2′-chloro-[1,1′-biphenyl]-2-yl)sulfonyl)-4-fluoropiperidine-4-carboxamide]: 140 nM. On to `N#C/C=C/CNC(=O)C1(F)CCN(S(=O)(=O)c2cnc(Cl)cc2-c2ccccc2Cl)CC1` [Compound 232, (E)-1-((6-chloro-4-(2-chlorophenyl)pyridin-3-yl)sulfonyl)-N-(3-cyanoallyl)-4-fluoropiperidine-4-carboxamide], for which the IC50 is 520 nM. As for `C[C@H](/C=C\S(C)(=O)=O)NC(=O)C1(F)CCN(C(=O)C2CCN(C(=O)OC(C)(C)C)C=C2c2ccccc2Cl)CC1` (stereo partly drawn) [Compound 258, tert-butyl 5-(2-chlorophenyl)-4-(4-fluoro-4-(((R,Z)-4-(methylsulfonyl)but-3-en-2-yl)carbamoyl)piperidine-1-carbonyl)-3,4-dihydropyridine-1(2H)-carboxylate], the IC50 is 883 nM. Under `C[C@H](/C=C/S(=O)(=O)C1CNC1)NC(=O)C1(F)CCN(S(=O)(=O)c2ccc(Br)cc2-c2ccccc2Cl)CC1` [Compound 76, (R,E)-N-(4-(azetidin-3-ylsulfonyl)but-3-en-2-yl)-1-((5-bromo-2′-chloro-[1,1′-biphenyl]-2-yl)sulfonyl)-4-fluoropiperidine-4-carboxamide] stands 32 nM; under `O=C(N[C@@H]1C=CS(=O)(=O)C1)C1(F)CCN(S(=O)(=O)c2ccc(Br)cc2-c2ccccc2Cl)CC1` [Compound 66, (R)-1-((5-bromo-2′-chloro-[1,1′-biphenyl]-2-yl)sulfonyl)-N-(1,1-dioxido-2,3-dihydrothiophen-3-yl)-4-fluoropiperidine-4-carboxamide], 37.9 nM. Take `C[C@@H]1C[C@](F)(C(=O)NC/C=C\C(=O)N2CC(F)(F)C2)CCN1S(=O)(=O)c1ccc(C#N)cc1-c1ccccc1Cl` [Compound 292, (2R,4S)-1-((2′-chloro-5-cyano-[1,1′-biphenyl]-2-yl)sulfonyl)-N-((Z)-4-(3,3-difluoroazetidin-1-yl)-4-oxobut-2-en-1-yl)-4-fluoro-2-methylpiperidine-4-carboxamide]: the IC50 was 160 nM.

Regarding `CC[C@@H](/C=C/S(=O)(=O)C1CNC1)NC(=O)C1(F)CCN(S(=O)(=O)c2ccc(Br)cc2-c2ccccc2Cl)CC1` [Compound 78, (S,E)-N-(1-(azetidin-3-ylsulfonyl)pent-1-en-3-yl)-1-((5-bromo-2′-chloro-[1,1′-biphenyl]-2-yl)sulfonyl)-4-fluoropiperidine-4-carboxamide], the IC50 is 461 nM. For the molecule `CS(=O)(=O)C=C1CN(C(=O)C2(F)CCN(S(=O)(=O)c3ccc(Br)cc3-c3ccccc3Cl)CC2)C1` [Compound 273, (1-((5-bromo-2′-chloro-[1,1′-biphenyl]-2-yl)sulfonyl)-4-fluoropiperidin-4-yl)(3-((methylsulfonyl)methylene)azetidin-1-yl)methanone], the IC50 stood at 830 nM. Turning to `C[C@H](/C=C\S(C)(=O)=O)NC(=O)C1(F)CCN(C(=O)[C@H]2CN(C(=O)C(C)(C)C)C[C@H]2c2ccccc2Cl)CC1` [Compound 161, 1-((3R,4R)-4-(2-chlorophenyl)-1-pivaloylpyrrolidine-3-carbonyl)-4-fluoro-N-((R,Z)-4-(methylsulfonyl)but-3-en-2-yl)piperidine-4-carboxamide], the IC50 turned out to be 800 nM.
